According to the Kinase Knowledgebase extract (Sharma et al. 2016):

Target: CDK2 (UniProt P24941)
Experiment: Enzyme Assay

IC50: 2 µM
SMILES: COc1ccc(CNc2nc(NCCCNC(=O)[C@H]3CSC(=O)N3)nc3c2ncn3C(C)C)cc1
